Source: patent US20120309767A1, “PROCESS FOR THE PREPARATION OF ALPHA FORM OF IMATINIB MESYLATE” (priority 2010, published 2012)
Like-named read-outs stand apart in the source and are kept apart here.

Details: 40° C. and 75 RH; for Identification by IR: vs working standard of Imatinib Mesylate (Form-α)
Description: FTIR (Fourier transform infrared spectrophotometer) • Make: SHIMADZU, IR Prestige-21 • Sample preparation: KBr pellets • 3. […] HPLC: Used Agilent 1200, VWD detector, system gradient Instrument conditions are:
A stability study was performed on the alpha form of imatinib mesylate at 40° C. and 75 RH for 3 months.

CS(=O)(=O)O.Cc1ccc(NC(=O)c2ccc(CN3CCN(C)CC3)cc2)cc1Nc1nccc(-c2cccnc2)n1 [Example 2]
Assay [by HPLC] (on anhydrous) (1M): 99.94% | Descriptions (1M): White | Water content by KF (1M): 0.55 % w/w | Identification by IR (1M): concordant | Assay [by HPLC] (on anhydrous) (2M): 99.70% | Descriptions (2M): White | Related Substance [by HPLC] Unknown impurity RRT = 0.81 (2M): 0.03 % w/w | Water content by KF (2M): 0.61 % w/w | Identification by IR (2M): concordant | Assay [by HPLC] (on anhydrous) (3M): 99.75% | Descriptions (3M): White | Related Substance [by HPLC] Known impurities: Impurity-1 (3M): 0.02 % w/w | Related Substance [by HPLC] Unknown impurity RRT = 0.81 (3M): 0.02 % w/w | Water content by KF (3M): 0.56 % w/w | Identification by IR (3M): concordant | Assay [by HPLC] (on anhydrous) (Initial): 99.98% | Descriptions (Initial): White | Related Substance [by HPLC] Total impurities (Initial): 0.04 % w/w | Related Substance [by HPLC] Unknown impurity RRT = 0.81 (Initial): 0.04 % w/w | Water content by KF (Initial): 0.52 % w/w | Identification by IR (Initial): concordant
